System: Staphylococcus epidermidis biofilm
Assay: In-vitro biofilm microtitre plate assay, regrowth of biofilm after 1 minute treatment (growth index, GRI)
Assay type: cell-based
Details: conclusion in words from normalised GRI of soap + clay + antibacterial combinations
Experimental: A biofilm based microtitre plate assay was used to determine the antibacterial efficacy of the test suspensions. The efficacy is measured in terms of an index called the growth index [GRI].
An axillary isolate of Staphylococcus epidermidis was used for all the studies. The isolate was maintained on sterile CYAgar [Blood agar base 2—42 gm.1^−1, dextrose—2 gm.1^−1, yeast extract—3 gm.1^−1, polysorbate 80—5 gm.1^−1]. 24 hrs prior to the study, the isolate was subcultured onto fresh sterile CYAgar and incubated at 37° C. […]
Standardization of biofilm in terms of its attachment to polystyrene wells was initially carried out by crystal violet staining and quantification of cell numbers. […]
A kinetic assay was performed to measure the regrowth of the biofilm in an iEMS reader using the Thermo Labsystems Ascent Software™. Readings were recorded at 37° C. for 24 hrs on an hourly basis at 620 nm.
Growth of bacteria is represented by 4 phases—lag phase, exponential phase, stationary phase and death phase. […] The cumulative effect of the antibacterial over the placebo effect can be determined by the product of the increase in the time taken to reach the mid log phase from the control, and the decrease in the cell density after 24 hrs of growth. […]

Row | SMILES | synergistic benefit in antibacterial efficacy
1 | O=C(Nc1ccc(Cl)cc1)Nc1ccc(Cl)c(Cl)c1 [TCC, 3,4,4′ trichlorocarbanilide] | do not provide similar synergistic benefit
2 | Oc1cc(Cl)ccc1Oc1ccc(Cl)cc1Cl [TCN, 4,2′,4′-trichloro-2-hydroxy diphenyl ether] | do not provide similar synergistic benefit
